# Data: patent publication US9315490B2, “2,5-substituted pyrimidines” (Grünenthal GmbH, priority 2014, dated 2016)
# Biological target: T1, human PDE4B1 (Homo sapiens, UniProt Q07343)
# T1 construct: host or cells: Sf9 cells
# Test: cAMP HTRF assay to determine the activity of hPDE4B1
# Format: biochemical
# Settings: inhibition of PDE4B at a test concentration of 1 μM
# Method in brief: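 […], using HTRF quantitation of residual cAMP after 1 mM IBMX stop and 60 min detection. Enzyme was Sf9-expressed human PDE4B1 incubated 30 min at room temperature with 40 nM final cAMP at pH 7.8.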
# T1 sequence (Q07343 whole entry): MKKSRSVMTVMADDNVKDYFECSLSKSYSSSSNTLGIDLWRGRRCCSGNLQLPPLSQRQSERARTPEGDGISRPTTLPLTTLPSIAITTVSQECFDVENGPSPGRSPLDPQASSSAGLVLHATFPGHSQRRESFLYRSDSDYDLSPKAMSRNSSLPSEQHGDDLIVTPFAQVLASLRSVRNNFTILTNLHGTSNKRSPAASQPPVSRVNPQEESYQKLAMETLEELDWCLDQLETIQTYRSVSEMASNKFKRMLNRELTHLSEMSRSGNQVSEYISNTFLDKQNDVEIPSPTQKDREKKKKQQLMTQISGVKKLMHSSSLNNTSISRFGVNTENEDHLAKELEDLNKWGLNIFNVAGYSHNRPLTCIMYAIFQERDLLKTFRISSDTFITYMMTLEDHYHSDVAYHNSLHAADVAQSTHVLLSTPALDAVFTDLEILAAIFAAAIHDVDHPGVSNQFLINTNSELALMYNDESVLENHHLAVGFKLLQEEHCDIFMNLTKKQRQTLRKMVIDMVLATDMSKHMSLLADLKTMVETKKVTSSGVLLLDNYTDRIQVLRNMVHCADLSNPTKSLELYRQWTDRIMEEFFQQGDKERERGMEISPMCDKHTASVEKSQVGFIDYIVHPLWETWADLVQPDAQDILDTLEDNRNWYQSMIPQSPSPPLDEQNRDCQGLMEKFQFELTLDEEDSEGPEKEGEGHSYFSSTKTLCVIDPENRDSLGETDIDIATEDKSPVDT
row,Structure (SMILES),inhibition at 1 µM
1,"C[S+]([O-])c1cn(-c2ncc(-c3ccccc3)cn2)c2cc(C(=O)N3C[C@@H]4C[C@H]3CN4)ccc12 (stereo partly drawn) [Example 233, (1S,4S)-2,5-Diazabicyclo[2.2.1]heptan-2-yl(3-(methylsulfinyl)-1-(5-phenylpyrimidin-2-yl)-1H-indol-6-yl)methanone]",103%
2,"C[S+]([O-])c1cn(-c2ncc(-c3ccccc3)cn2)c2cc(C(=O)N3C[C@H]4C[C@@H]3CO4)ccc12 (stereo partly drawn) [Example 234, (1R,4R)-2-Oxa-5-azabicyclo[2.2.1]heptan-5-yl(3-(methylsulfinyl)-1-(5-phenylpyrimidin-2-yl)-1H-indol-6-yl)methanone]",91%
3,"CS(=O)(=O)c1cn(-c2ncc(-c3ccccc3)cn2)c2cc(C(=O)N3C[C@@H]4C[C@H]3CN4)ccc12 [Example 236, (1S,4S)-2,5-Diazabicyclo[2.2.1]heptan-2-yl(3-(methylsulfonyl)-1-(5-phenylpyrimidin-2-yl)-1H-indol-6-yl)methanone]",85%
4,"CS(=O)(=O)c1cn(-c2ncc(-c3ccccc3)cn2)c2cc(C(=O)N3C[C@H]4C[C@@H]3CO4)ccc12 [Example 237, (1R,4R)-2-Oxa-5-azabicyclo[2.2.1]heptan-5-yl(3-(methylsulfonyl)-1-(5-phenylpyrimidin-2-yl)-1H-indol-6-yl)methanone]",36%
5,"CS(=O)(=O)c1cn(-c2ncc(-c3ccccc3F)cn2)c2cc(C(=O)N3C[C@H]4C[C@@H]3CO4)ccc12 [Example 238, (1R,4R)-2-Oxa-5-azabicyclo[2.2.1]heptan-5-yl(1-(5-(2-fluorophenyl)pyrimidin-2-yl)-3-(methylsulfonyl)-1H-indol-6-yl)methanone]",32%
6,"CS(=O)(=O)c1cn(-c2ncc(-c3ccccc3F)cn2)c2cc(C(=O)N3C[C@@H]4C[C@H]3CN4)ccc12 [Example 239, (1S,4S)-2,5-Diazabicyclo[2.2.1]heptan-2-yl(1-(5-(2-fluorophenyl)pyrimidin-2-yl)-3-(methylsulfonyl)-1H-indol-6-yl)methanone]",78%
7,"C[S+]([O-])c1cn(-c2ncc(-c3ccccc3F)cn2)c2cc(C(=O)N3C[C@@H]4C[C@H]3CN4)ccc12 (stereo partly drawn) [Example 240, (1S,4S)-2,5-Diazabicyclo[2.2.1]heptan-2-yl(1-(5-(2-fluorophenyl)pyrimidin-2-yl)-3-(methylsulfinyl)-1H-indol-6-yl)methanone]",101%
8,"C[S+]([O-])c1cn(-c2ncc(-c3ccccc3F)cn2)c2cc(C(=O)N3C[C@@H]4CCN[C@@H]4C3)ccc12 (stereo partly drawn) [Example 242, (1-(5-(2-Fluorophenyl)pyrimidin-2-yl)-3-(methylsulfinyl)-1H-indol-6-yl)((3aS,6aS)-hexahydropyrrolo[3,4-b]pyrrol-5(1H)-yl)methanone]",66%
9,"C[S+]([O-])c1cn(-c2ncc(-c3ccccc3F)cn2)c2cc(C(=O)N3C[C@H]4C[C@@H]3CO4)ccc12 (stereo partly drawn) [Example 243, (1R,4R)-2-Oxa-5-azabicyclo[2.2.1]heptan-5-yl(1-(5-(2-fluorophenyl)pyrimidin-2-yl)-3-(methylsulfinyl)-1H-indol-6-yl)methanone]",64%
10,"C[S+]([O-])c1cn(-c2ncc(-c3ccccn3)cn2)c2cc(C(=O)N3C[C@@H]4C[C@H]3CN4)ccc12 (stereo partly drawn) [Example 244, (1S,4S)-2,5-Diazabicyclo[2.2.1]heptan-2-yl(3-(methylsulfinyl)-1-(5-(pyridin-2-yl)pyrimidin-2-yl)-1H-indol-6-yl)methanone]",102%
11,"CN(CC1(O)CC1)C(=O)c1ccc2c([S+](C)[O-])cn(-c3ncc(-c4ccccc4F)cn3)c2c1 (stereo not shown) [Example 250, 1-(5-(2-Fluorophenyl)pyrimidin-2-yl)-N-((1-hydroxycyclopropyl)methyl)-N-methyl-3-(methylsulfinyl)-1H-indole-6-carboxamide]",30%
12,"C[C@H](O)CN(C)C(=O)c1ccc2c([S+](C)[O-])cn(-c3ncc(-c4ccccc4F)cn3)c2c1 (stereo partly drawn) [Example 251, 1-(5-(2-Fluorophenyl)pyrimidin-2-yl)-N—((S)-2-hydroxypropyl)-N-methyl-3-(methylsulfinyl)-1H-indole-6-carboxamide]",45%
13,"C[S+]([O-])c1cn(-c2ncc(-c3ccccc3F)cn2)c2cc(C(=O)N3CCC3)ccc12 (stereo not shown) [Example 355, Azetidin-1-yl(1-(5-(2-fluorophenyl)pyrimidin-2-yl)-3-(methylsulfinyl)-1H-indol-6-yl)methanone]",77%
14,"CCN(C)C(=O)c1ccc2c([S+](C)[O-])cn(-c3ncc(-c4ccccc4F)cn3)c2c1 (stereo not shown) [Example 356, N-Ethyl-1-(5-(2-fluorophenyl)pyrimidin-2-yl)-N-methyl-3-(methylsulfinyl)-1H-indole-6-carboxamide]",96%
15,"CCN(CC)C(=O)c1ccc2c([S+](C)[O-])cn(-c3ncc(-c4ccccc4F)cn3)c2c1 (stereo not shown) [Example 357, N,N-Diethyl-1-(5-(2-fluorophenyl)pyrimidin-2-yl)-3-(methylsulfinyl)-1H-indole-6-carboxamide]",107%
16,"C[S+]([O-])c1cn(-c2ncc(-c3ccccc3F)cn2)c2cc(C(=O)N3CCCCC3)ccc12 (stereo not shown) [Example 358, (1-(5-(2-Fluorophenyl)pyrimidin-2-yl)-3-(methylsulfinyl)-1H-indol-6-yl)(piperidin-1-yl)methanone]",98%

row,Structure (SMILES),inhibition at 1 µM
1,"CC1CCCN1C(=O)c1ccc2c([S+](C)[O-])cn(-c3ncc(-c4ccccc4F)cn3)c2c1 (stereo not shown) [Example 359, (1-(5-(2-Fluorophenyl)pyrimidin-2-yl)-3-(methylsulfinyl)-1H-indol-6-yl)(2-methylpyrrolidin-1-yl)methanone]",90%
2,"CN(CC1CC1)C(=O)c1ccc2c([S+](C)[O-])cn(-c3ncc(-c4ccccc4F)cn3)c2c1 (stereo not shown) [Example 360, N-(Cyclopropylmethyl)-1-(5-(2-fluorophenyl)pyrimidin-2-yl)-N-methyl-3-(methylsulfinyl)-1H-indole-6-carboxamide]",75%
3,"CC1CCCCN1C(=O)c1ccc2c([S+](C)[O-])cn(-c3ncc(-c4ccccc4F)cn3)c2c1 (stereo not shown) [Example 361, (1-(5-(2-Fluorophenyl)pyrimidin-2-yl)-3-(methylsulfinyl)-1H-indol-6-yl)(2-methylpiperidin-1-yl)methanone]",40%
4,"CC1CCCN(C(=O)c2ccc3c([S+](C)[O-])cn(-c4ncc(-c5ccccc5F)cn4)c3c2)C1 (stereo not shown) [Example 362, (1-(5-(2-Fluorophenyl)pyrimidin-2-yl)-3-(methylsulfinyl)-1H-indol-6-yl)(3-methylpiperidin-1-yl)methanone]",78%
5,"CC1CCN(C(=O)c2ccc3c([S+](C)[O-])cn(-c4ncc(-c5ccccc5F)cn4)c3c2)CC1 (stereo not shown) [Example 363, (1-(5-(2-Fluorophenyl)pyrimidin-2-yl)-3-(methylsulfinyl)-1H-indol-6-yl)(4-methylpiperidin-1-yl)methanone]",41%
6,"C[S+]([O-])c1cn(-c2ncc(-c3ccccc3F)cn2)c2cc(C(=O)N3CCCCCC3)ccc12 (stereo not shown) [Example 364, Azepan-1-yl(1-(5-(2-fluorophenyl)pyrimidin-2-yl)-3-(methylsulfinyl)-1H-indol-6-yl)methanone]",73%
7,"CN1CCN(C(=O)c2ccc3c([S+](C)[O-])cn(-c4ncc(-c5ccccc5F)cn4)c3c2)CC1 (stereo not shown) [Example 365, (1-(5-(2-Fluorophenyl)pyrimidin-2-yl)-3-(methylsulfinyl)-1H-indol-6-yl)(4-methylpiperazin-1-yl)methanone]",54%
8,"CC(C)N(C(=O)c1ccc2c([S+](C)[O-])cn(-c3ncc(-c4ccccc4F)cn3)c2c1)C(C)C (stereo not shown) [Example 366, 1-(5-(2-Fluorophenyl)pyrimidin-2-yl)-N,N-diisopropyl-3-(methylsulfinyl)-1H-indole-6-carboxamide]",30%
9,"CN(C)CCN(C)C(=O)c1ccc2c([S+](C)[O-])cn(-c3ncc(-c4ccccc4F)cn3)c2c1 (stereo not shown) [Example 367, N-(2-(Dimethylamino)ethyl)-1-(5-(2-fluorophenyl)pyrimidin-2-yl)-N-methyl-3-(methylsulfinyl)-1H-indole-6-carboxamide]",40%
10,"C[S+]([O-])c1cn(-c2ncc(-c3ccccc3F)cn2)c2cc(C(=O)N3CCSCC3)ccc12 (stereo not shown) [Example 368, (1-(5-(2-Fluorophenyl)pyrimidin-2-yl)-3-(methylsulfinyl)-1H-indol-6-yl)(thiomorpholino)methanone]",103%
11,"CN(CCC(=O)O)C(=O)c1ccc2c([S+](C)[O-])cn(-c3ncc(-c4ccccc4F)cn3)c2c1 (stereo not shown) [Example 369, 3-(1-(5-(2-Fluorophenyl)pyrimidin-2-yl)-N-methyl-3-(methylsulfinyl)-1H-indole-6-carboxamido)propanoic acid]",87%
12,"C[S+]([O-])c1cn(-c2ncc(-c3ccccc3F)cn2)c2cc(C(=O)N3CCC4(COC4)C3)ccc12 (stereo not shown) [Example 370, (1-(5-(2-Fluorophenyl)pyrimidin-2-yl)-3-(methylsulfinyl)-1H-indol-6-yl)(2-oxa-6-azaspiro[3.4]octan-6-yl)methanone]",23%
13,"CCC1CCCCN1C(=O)c1ccc2c([S+](C)[O-])cn(-c3ncc(-c4ccccc4F)cn3)c2c1 (stereo not shown) [Example 371, (2-Ehylpiperidin-1-yl)(1-(5-(2-fluorophenyl)pyrimidin-2-yl)-3-(methylsulfinyl)-1H-indol-6-yl)methanone]",32%
14,"CN(C)[C@@H]1CCN(C(=O)c2ccc3c([S+](C)[O-])cn(-c4ncc(-c5ccccc5F)cn4)c3c2)C1 (stereo partly drawn) [Example 374, ((R)-3-(Dimethylamino)pyrrolidin-1-yl)(1-(5-(2-fluorophenyl)-pyrimidin-2-yl)-3-(methylsulfinyl)-1H-indol-6-yl)methanone]",47%
15,"CCN1CCN(C(=O)c2ccc3c([S+](C)[O-])cn(-c4ncc(-c5ccccc5F)cn4)c3c2)CC1 (stereo not shown) [Example 375, (4-Ethylpiperazin-1-yl)(1-(5-(2-fluorophenyl)pyrimidin-2-yl)-3-(methylsulfinyl)-1H-indol-6-yl)methanone]",66%
